Among the data in patent US20260138962A1, “SYNTHESIS OF DERIVATIVES OF SIPH[…] THERAPEUTIC USE THEREOF” (priority 2022, published 2026) are inhibition, IC50 and toxicity values, retold here.

By inhibition is commonly meant the change of the read-out against control, counted positive when it falls. In general, IC50 refers to the midpoint of a concentration-inhibition curve.

≈ marks a conversion by molar mass, not a printed value. Where “and” joins values, the source holds several entries; their conditions need not be identical. Equal entries are not always repeated.

The subject of data set [1] is Influenza A-type virus (strain 108 617). Put plainly: Cytopathic Effect Reduction Assay against Influenza A (CERA-1) in MDCK cells. It is filed as cell-based. Particulars: for IC50: calculated with GraphPad Prism.
Data set [2] has as its system SARS-CoV-2 Wuhan isolate (wild type). Put plainly: microbe, parasite or virus in culture. It is filed as cell-based. Particulars: Severe acute respiratory syndrome coronavirus 2, Vero C1008.
Data set [3] concerns MDCK cells. Particulars: all test concentrations, 50.0 to 3.75 μg/mL.

Take `NC(=O)c1ncn([C@@H]2O[C@H](CO)[C@@H](O)[C@H]2O)n1` [ribavirin, reference compound]: the inhibition at 50 µg/mL in data set [1] (Influenza A virus, MDCK, 50.0 μg/mL) is greater than 105%. Also, the half-maximal inhibitory concentration (IC50) in data set [1] (Influenza A virus) was 2.16 µg/mL (≈ 8.84 µM).

On to `CC1=C2C[C@@H]3[C@@H](C)C=CC(=O)[C@@]3(C)C[C@@]2(O)OC1=O` [HLS, (4aR,5S,8aS,9aR)-9a-hydroxy-3,5,8a-trimethyl-4a,5,9,9a-tetrahydronaphtho[2,3-b]furan-2,8(4H,8aH)-dione], for which the half-maximal inhibitory concentration (IC50) is 3.03 µg/mL (≈ 11.6 µM) in data set [2] (Wuhan strain, in vitro) and 9.2 µg/mL (≈ 35.1 µM) in data set [1] (Influenza A virus). For the same compound, the inhibition at 0.5 µg/mL in data set [2] (Wuhan, 0.5 μg/ml, Vero E6 cells) was determined as 25%. Moreover, in data set [2] (Wuhan, 2 μg/ml, Vero E6 cells), the inhibition at 2 µg/mL is 50%. For the same compound, the inhibition at 5 µg/mL in data set [2] (Wuhan, 5 μg/ml, Vero E6 cells) amounted to 75%. Also, the inhibition at 16 µg/mL in data set [2] (Wuhan, 16 μg/ml, Vero E6 cells) stood at 100%. Further, the inhibition at 50 µg/mL in data set [2] (Wuhan, 50 μg/ml, Vero E6 cells) came out at 100%. Also, in data set [1] (50.0 μg/mL), the inhibition was > 100% and > 123%. Besides, the inhibition at 3.75 µg/mL in data set [1] (Influenza A virus, MDCK, 3.75 μg/mL) was greater than 30%. Further, the toxicity result in data set [3] was “no toxicity”.
